# pIC50: −log10 of the molar value. Where two headings read alike, the source gives them in different places.
# Columns and labels:
# [1] = test system: CT26 (mouse colon carcinoma) cells; assay: MTT viability assay, cytotoxic activity; settings: 48 h, 1-1,000 μM
# Method: The viability of cells was measured using the MTT assay. […] The viability of the cells was then assessed by adding 5 mg/ml methylthiazoletetrazolium (MTT) to a final concentration of 0.5 mg/ml and incubating cells for a further 4 h at 37° C. The blue formazan that is formed by mitochondrial dehydrogenases of viable cells was then dissolved over night at 37° C. by adding 10% SDS and 10 mM HCl to a final concentration of 5% SDS and 5 mM HCl. Finally, the absorbance of the solution was read at 570 nm with a reference at 670 nm in a microplate reader Spectramax 340 (Molecular Devices, Sunnyvale, Calif., USA) connected to an Apple Macintosh computer running the program Softmax Pro V1.2.0 (Molecular Devices, Sunnyvale, Calif., USA).
# [2] = cited from earlier work
# pig heart = settings: pigs; cited from earlier work
# [3] = test system: white blood cells (WBC), lymphocytes (LYM), neutrophils (NEU); assay: Myelosuppressive effects of carboplatin in balb/c mice, cytoprotection; format: in vivo
# Excerpt: A control group received vehicle (saline) and saline instead of carboplatin.
# [4] = humans, diagnostic MR imaging dose iv; cited from earlier work
# white blood cells (WBC) = assay: Myelosuppressive effects of oxaliplatin in balb/c mice, cytoprotection
# Method: One day before (baseline) as well as 3 and 6 days after oxaliplatin treatment 50 μl EDTA blood samples were taken from the orbital venous plexus with a glass capillary. The blood samples were analyzed using the automated system CELL-DYN® Emerald (Abbott Diagnostics) for the content of white blood cells (WBC), lymphocytes (LYM), neutrophils (NEU) and platelets (PLC). […] A control group received instead of oxaliplatin vehicle (5% glucose) and saline. […] The statistical differences between treatment groups, where appropriate, were tested by an unpaired Student's t-test. A p-value lower than 0.05 was considered as a statistically significant difference.
# human U1810 NSCLC cells = assay: MTT viability assay, cytotoxic activity; format: cell-based; settings: for pIC50: 48 h, MTT, read-out: IC50 (concentration causing 50% inhibition of viability)
# Method: (§1) The viability of U1810 or LLC1 cells in the presence of increasing concentrations of calmangafodipir or mangafodipir is presented as concentration response curves (mean±S.D.). The individual curves were fitted to the sigmoidal variable slope response logistic equation (Graphpad Prism, version 5.02). From this analysis the concentrations causing 50% inhibition (IC50) of the test substances were calculated.
# [5] = one patient, cited from earlier work
# [6] = Mn content of brain, pancreas and liver after repeated intravenous injections; settings: rats, 39 iv doses, 72 μmol/kg manganese each, 3 times a week for 13 weeks
# Method: After the 13-week administration period, the rats were sacrificed and the brains and pancreas were dissected out and approximately 0.5 g samples were stored frozen until Mn analysis. The Mn content of each sample was analyzed by ICP-MS. Results are expressed as μg/g wet weight±S.E.M. Statistical difference between the mangafodipir group and the calmangafodipir group, with respect to Mn content, was tested by a paired Student's t-test. A p-value lower than 0.05 was considered as a statistically significant difference.
# [7] = rats; cited from earlier work
# [8] = Manganese urine excretion 0-24 h after intravenous injection; settings: rats; for Mn recovered in 0-24 h urine: iv 0.25 ml, 2.59 μmol Mn (mangafodipir) or 2.52 μmol Mn (calmangafodipir) injected; for Mn in 0-24 h urine as percentage of the injected dose: iv, basal excretion subtracted
# Method: To obtain basal content of manganese (Mn) and zinc (Zn) in urine, two additional (control) rats received 0.25 ml saline and were placed in metabolic cages for urine collection over the same period of time. The urine samples were then stored at −80° C. until Mn analysis. Before analysis, the samples were thawed and extensively shaken to obtain homogenous samples. A five ml aliquot was taken from each sample and 5 ml concentrated nitric acid was added. The samples were then resolved in a microwave oven and thereafter diluted with distilled water to a final volume of 50 ml. The Mn content of each sample was analyzed by ICP-MS (Inductively Coupled Plasma Mass Spectrometry). Identical samples of calmangafodipir and mangafodipir as those injected in the rats (i.e., 0.25 ml) were withdrawn and injected into test tubes. These samples were treated in an identical manner to that of the urine samples and analyzed for their Mn content. Results are presented as total 0-24 h urine Mn content (expressed as μmol/kg±S.E.M.) and as percentage (±S.E.M.) of the injected dose. […] A p-value lower than 0.05 was considered as a statistically significant difference.
# [9] = rats, single 5 μmol/kg b.w., cited from earlier work
# CT26 tumors [10] = assay: Antitumor activity of oxaliplatin with or without calmangafodipir in CT26-bearing mice; format: in vivo, balb/c mice
# Method: When the cells reached ˜50% confluency they were harvested by trypsinization. Briefly, cells were washed with phosphate based saline (PBS) (pH 7.3) and exposed to 0.05% Trypsin/0.53 mM EDTA at 37° C. for ˜5 min. The trypsinization was stopped by adding RPMI1640 culture medium. Cells were counted and centrifuged at 200×g for 5 min. Thereafter, they were washed in PBS, centrifuged again and resuspended in PBS at a concentration of 2×10^6/350 μl for injection into mice. Balb/c female mice between 6 and 8 weeks of age were used, as described by Laurent et al., 2005. Briefly, each mouse was injected subcutaneously in the back of the neck with 2×10^6 of CT26 cells at day 0. After 7 days (day 7) when the tumors were detectable, the tumor size was determined with a caliper and mice were grouped (5 in each group) so that the sizes of the tumors were not statistically different by group. Oxaliplatin±calmangafodipir (lot #11AK0105B) was injected and one group of mice received vehicle (0.9% saline+5% glucose) treatment alone. In a first series of experiments, mice were injected i.v. with saline or 50 mg/kg calmangafodipir 30 minutes prior to i.p. administration of 20 mg/kg oxaliplatin (diluted in 5% glucose) or 5% glucose. These mice received in addition saline or 50mg/kg calmangafodipir 24 hours later (day 8). In another series of experiments, mice were injected i.v. with saline or 5 mg/kg calmangafodipir 30 minutes […] (diluted in 5% glucose) or 5% glucose, and saline or 5 mg/kg calmangafodipir 24 hours later (day 8). The mice were killed on day 10 and the tumors were excised and wet weights were determined.
# [11] = Exposure of solids at 25° C./60% RH and 40° C./75% RH (water absorption); format: physicochemical; settings: 7 days at 25° C./60% RH and 40° C./75% RH
# Method: Furthermore, the preparation of a single active pharmaceutical ingredient reduces the cost of manufacture of a treatment dosage. In addition, the need for dosing of a single material reduces the chance for errors in the formulation of the product.
# In a 4:1 ratio approximately 200 mg of calfodipir (CaDPDP) and 50 mg of mangafodipir (MnDPDP) were weighed into a 40 mL vial and dissolved in 40 mL of DI water at room temperature to generate a yellow solution. The yellow aqueous solution was spray dried using a Buchi Mini-Spray Dryer B-290 while attached to the Buchi dehumidifier B-296 as an air conditioner allowing the intake of air from the laboratory. Spray drying optimization experiments were performed at elevated inlet temperatures (220° C.) with varying feed rates (20, 30, 40, 50 and 60%). Recovery of product ranged from 180-230 mg.
# CT26 tumors [12] = assay: Antitumor activity of oxaliplatin with or without calmangafodipir in CT26-bearing immune competent and nude balb/c mice; format: in vivo; settings: 5 mg/kg calmangafodipir with 10 mg/kg oxaliplatin
# Method: When the cells reached ˜50% confluency they were harvested by trypsinization. Briefly, cells were washed with PBS (pH 7.3) and exposed to 0.05% Trypsin/0.53 mM EDTA at 37° C. for ˜5 min. The trypsinization was stopped by adding RPMI 1640 culture medium. Cells were counted and centrifuged at 200×g for 5 min. Thereafter, they were washed in PBS, centrifuged again and resuspended in PBS at a concentration of 2×10^6/350 μl for injection into mice. Immune competent balb/c female mice (balb/c) and immune incompetent nude female balb/c mice (blab/c nu/nu) between 6 and 8 weeks of age were used, as described by Laurent et al., 2005. Briefly, each mouse was injected subcutaneously in the back of the neck with 2×10^6 of CT26 cells at day 0. After 7 days (day 7) when the tumors were detectable, the tumor size was determined with a caliper and mice were grouped (5 in each group) so that the sizes of the tumors were not statistically different by group. Groups of mice (5 in each group, as illustrated in FIG. 14) were injected i.v. with saline or 5 mg/kg calmangafodipir (lot #11AK0105B) 30 minutes prior to i.p. administration of 10 mg/kg oxaliplatin (diluted in 5% glucose) or 5% glucose. Mice received in addition saline or 5 mg/kg calmangafodipir 24 hours later (day 8). The mice were sacrificed on day 10 and the tumors were excised and wet weights were determined. The results are presented in a graph for the various treatments (mean±S.E.M.).
# LLC1 NSCLC cells = assay: MTT viability assay, cytotoxic activity; format: cell-based, murine; settings: 48 h
# Method: as §1
# [13] = Variable humidity XRPD analysis of crystalline forms; format: physicochemical; settings: 10 mg scale, change of ambient humidity
# Excerpt: X-Ray Powder Diffraction (XRPD) is most widely used in the identification and characterization of crystalline solids, each of which produces a distinctive diffraction pattern. Both the positions (corresponding to lattice spacings) and the relative intensity of the lines are indicative of a particular phase and material, providing a “fingerprint” for comparison.
structure (smiles),measurement,setting,value
[Ca+2].[Cl-].[Cl-] [CaCl2],cytotoxic activity,[1],"Neither ZnDPDP, ZnPLED nor CaCl2 displayed any cytotoxic activity at all"
"Cc1ncc(COP(=O)(O)O)c(CN(CCN(CC(=O)O)Cc2c(COP(=O)(O)O)cnc(C)c2O)CC(=O)O)c1O [fodipir, N,N′-bis-(pyridoxal-5-phosphate)-ethylenediamine-N,N′-diacetic acid]",affinity of zinc relative to manganese for the chelator,[2]; higher affinity of zinc,about 1000 times
same,affinity of calcium relative to manganese for the chelator,[2]; lower affinity of calcium,about 10^6 times
same,affinity of calcium relative to zinc for the chelator,[2]; lower affinity of calcium,about 10^9 times
same,cytotoxic activity relative to mangafodipir,[1],about 20 times
"Cc1ncc(CO)c(CN(CCN(CC(=O)O)Cc2c(CO)cnc(C)c2O)CC(=O)O)c1O [MnPLED, N,N′-dipyridoxyl ethylenediamine-N,N′-diacetic acid]",protection against ischemia-reperfusion-induced myocardial infarction,pig heart,significantly reduced myocardial infarct size
same,cytotoxic activity relative to mangafodipir,[1],~10 times
"N.N.O=C([O-])C1(C(=O)[O-])CCC1.[Pt+2] [Carboplatin, carboplatin]","decrease in WBC, as well as in NEU and LYM","[3]; carboplatin 125 mg/kg alone, 3 days after",approximately 50%
"Cc1ncc(COP(=O)(O)O)c(CN(CCN(CC(=O)O)Cc2c(COP(=O)(O)O)cnc(C)c2O)CC(=O)O)c1O.[Mn] [mangafodipir, manganese N,N′-bis-(pyridoxal-5-phosphate)-ethylenediamine-N,N′-diacetic acid]",administered manganese released,[4],about 80%
same,fall in WBC,white blood cells (WBC); 12.5 mg/kg oxaliplatin plus 1 mg/kg mangafodipir iv,around 50%
same,fall in WBC,white blood cells (WBC); 12.5 mg/kg oxaliplatin plus 10 mg/kg mangafodipir iv,around 50%
same,pIC50,human U1810 NSCLC cells,3.20
same,protection against ischemia-reperfusion-induced myocardial infarction,pig heart,does not protect the pig heart against ischemia-reperfusion-induced myocardial infarction
same,neurotoxic symptoms,"[5]; 14 of 15 cycles with mangafodipir pretreatment, accumulated 1275 mg/m^2 oxaliplatin",No neurotoxic symptoms were detected
same,neutropenia,[5]; during chemotherapy cycles,Neutropenia did not occur
same,Mn content in the pancreas,[6],5.54 ± 0.45 µmol/kg
same,fetal skeletal abnormalities,[7],caused fetal skeletal abnormalities in rats
same,Mn recovered in 0-24 h urine,[8],0.60 ± 0.04 µmol
same,Mn in 0-24 h urine as percentage of the injected dose,[8],23.1±1.4%
same,Mn content of the pancreas relative to basal value,[9]; after 2 hours,approximately 10 times
same,Mn content of the pancreas relative to basal value,[9]; after 24 hours,about 5 times
Cc1ncc(CO)c(CN(CCN(CC(=O)[O-])Cc2c(CO)cnc(C)c2O)CC(=O)[O-])c1O.[Zn+2] [ZnPLED],stability of complex relative to manganese counterpart,[2]; higher stability,1000 times
same,cytotoxic activity,[1],"Neither ZnDPDP, ZnPLED nor CaCl2 displayed any cytotoxic activity at all"
O=C1[O][Pt]2([NH][C@@H]3CCCC[C@H]3[NH]2)[O]C1=O [oxaliplatin],reduction in tumor weight,"CT26 tumors [10]; single treatment 20 mg/kg oxaliplatin i.p., day 10",more than 50%
same,fall in WBC,"white blood cells (WBC); single dose 12.5 mg/kg oxaliplatin alone, 6 days after",more than 80%
Cc1ncc(COP(=O)([O-])O)c(CN(CCN(CC(=O)O)Cc2c(COP(=O)([O-])O)cnc(C)c2O)CC(=O)O)c1O.Cc1ncc(COP(=O)([O-])O)c(CN(CCN(CC(=O)O)Cc2c(COP(=O)([O-])O)cnc(C)c2O)CC(=O)O)c1O.Cc1ncc(COP(=O)([O-])O)c(CN(CCN(CC(=O)O)Cc2c(COP(=O)([O-])O)cnc(C)c2O)CC(=O)O)c1O.Cc1ncc(COP(=O)([O-])O)c(CN(CCN(CC(=O)O)Cc2c(COP(=O)([O-])O)cnc(C)c2O)CC(=O)O)c1O.Cc1ncc(COP(=O)([O-])O)c(CN(CCN(CC(=O)O)Cc2c(COP(=O)([O-])O)cnc(C)c2O)CC(=O)O)c1O.[Ca+2].[Ca+2].[Ca+2].[Ca+2].[Mn+2] [calmangafodipir],influence on antitumor effect of oxaliplatin,CT26 tumors [10]; 5 mg/kg calmangafodipir iv with 10 mg/kg oxaliplatin,statistically significant better antitumor effect
same,influence on antitumor effect of oxaliplatin,CT26 tumors [10]; 50 mg/kg calmangafodipir iv with 20 mg/kg oxaliplatin,did not have any negative influence on the antitumor effect of oxaliplatin
same,appearance of solid after exposure,[11],remained a free flowing solid
same,fall in WBC,white blood cells (WBC); 12.5 mg/kg oxaliplatin plus 5 mg/kg calmangafodipir iv 30 min before and 24 h after,about 25%
same,IC50 ratio between mangafodipir and calmangafodipir (potency relative to mangafodipir),human U1810 NSCLC cells,about 28 times
same,pIC50,human U1810 NSCLC cells,4.64
same,"effect on carboplatin-induced decreases in WBC, NEU and LYM",[3]; calmangafodipir 3 mg/kg with carboplatin 125 mg/kg,abolished these decreases
same,shape of dose-response of myeloprotection,"[3]; calmangafodipir 1, 3, 10 or 30 mg/kg with carboplatin 125 mg/kg",bell shaped appearance
same,influence on antitumor effect of oxaliplatin,CT26 tumors [12]; immune competent and immune incompetent mice,did not have any negative influence on the antitumor effect of oxaliplatin
same,mean tumor weight compared to controls,CT26 tumors [12]; immune competent mice,statistically significantly reduced
same,mean tumor weight compared to controls,CT26 tumors [12]; immune deficient mice,no such reduction was seen
same,potency to kill cells compared with mangafodipir,LLC1 NSCLC cells,significantly more potent than mangafodipir
same,Mn brain content,[6],0.74±0.01 μg/g w.w.
same,Mn content in the pancreas,[6],3.35 ± 0.19 µmol/kg
same,time within which form conversions occur,[13],≤ 3 h
same,Mn recovered in 0-24 h urine,[8],1.27 ± 0.07 µmol
same,Mn in 0-24 h urine as percentage of the injected dose,[8],50.5±2.6%
same,cytotoxic activity relative to mangafodipir,[1],about 20 times

# Reference: patent US10111893B2, “Calmangafodipir, a new chemical entity, and other mixed metal complexes, methods of preparation, compositions, and methods of treatment” (priority 2012, dated 2018)
